# Test results published in ChEMBL document CHEMBL3739284, “Anteaglonialides A-F and Palmarumycins CE(1)-CE(3) from Anteaglonium sp. FL0768, a Fungal Endophyte of the Spikemoss Selaginella arenicola” (J Nat Prod, 2015).
# Experiment: Cytotoxicity against human CHP100 cells after 24 hrs by MTT assay
# Format: functional, cell-based
# Details: CHP100, 24 h
row,SMILES,IC50
1,O=C1C=CC2(Oc3cccc4cccc(c34)O2)[C@H]([C@H]2CCC(=O)O2)C1,1400 nM
2,O=C1C=C[C@H]2O[C@H]3CC(=O)[C@@H]1[C@@H]2C31Oc2cccc3cccc(c23)O1,400 nM
3,O=C1C=CC2(Oc3cccc4cccc(c34)O2)c2cccc(O)c21,1600 nM
